Measured values from patent publication US20080032918A1, “Mast cell-derived renin” (Cornell Research Foundation, Inc., priority 2003, published 2008).
“Also recorded” adds a separate entry of the source.

How the values were obtained:
[1] = tested on: isolated normoxic guinea pig hearts; experiment: chronotropic response and norepinephrine overflow in normoxic isolated hearts challenged with 48/80; details: BILA 2157 100 nM, lodoxamide 30 μM
Description: These findings indicate that cardiac mast cells are capable of releasing active renin, which then leads to local formation of ANG II causing norepinephrine exocytosis.

cardiac mast cells = experiment: renin in coronary effluent of normoxic Langendorff-perfused hearts challenged with 48/80; parameters: species or system guinea pig; details: lodoxamide 10 μM or BILA 2157 100 nM prior to 48/80
Method: Renin was measured in the coronary effluent of normoxic Langendorff-perfused guinea-pig hearts, ex vivo. […] When hearts were perfused with the mast-cell stabilizer lodoxamide (FIG. 9B) or the renin inhibitor BILA2157 prior to 48/80 challenge (FIGS. 9A and B), renin overflow was abolished.

guinea-pig hearts = experiment: ischemia-reperfusion in guinea pig hearts ex vivo (Langendorff); details: 20-min global ischemia, 45-min reperfusion, lodoxamide 10 μM; for ventricular fibrillation during reperfusion: BILA2157 100 nM; for renin overflow into coronary effluent on reperfusion: BILA 2157 100 nM
Method: Ischemia-reperfusion in guinea pig hearts ex vivo: Guinea-pig hearts will be perfused for 30 min prior to ischemia. Inamura et al., Circ. Res. 78: 475-481 (1996). Normothermic 20-min global ischemia will be induced by complete cessation of coronary perfusion, followed by 45-min reperfusion. Coronary effluent will be assayed for renin activity and NE.
Guinea-pig hearts were perfused ex vivo at constant pressure in a Langendorff apparatus and subjected to 20-min. stop-flow global ischemia, followed by 45-min. reperfusion (Hatta, E., R. Maruyama, S. J. Marshall, M. Imamura, and R. Levi. Bradykinin promotes ischemic norepinephrine release in guinea pig and human hearts. J. Pharmacol. Exp. Ther. 288: 919-927 (1999)). Surface ECG and coronary flow were continuously monitored; the coronary effluent was assayed for renin activity (i.e., ANG I generated as described herein). There was no detectable renin in the coronary effluent prior to ischemia. With reperfusion, there was significant renin overflow into the coronary effluent accompanied by ventricular fibrillation (VF) (FIG. 12).
Traces in the left panels were recorded at the end of the equilibration period prior to ischemia, showing normal sinus rhythm.

mast-cell-derived renin = target: T1, mast-cell-derived renin (Homo sapiens, UniProt P00797); experiment: renin activity (ANG I formed, RIA) of HMC-1 cell releasate incubated with human angiotensinogen; format: biochemical; details: BILA2157 100 nM
T1 construct: endogenous in cells; host or cells: HMC-1 human mastocytoma cell line, degranulated with compound 48/80
T1 sequence (P00797 67-406): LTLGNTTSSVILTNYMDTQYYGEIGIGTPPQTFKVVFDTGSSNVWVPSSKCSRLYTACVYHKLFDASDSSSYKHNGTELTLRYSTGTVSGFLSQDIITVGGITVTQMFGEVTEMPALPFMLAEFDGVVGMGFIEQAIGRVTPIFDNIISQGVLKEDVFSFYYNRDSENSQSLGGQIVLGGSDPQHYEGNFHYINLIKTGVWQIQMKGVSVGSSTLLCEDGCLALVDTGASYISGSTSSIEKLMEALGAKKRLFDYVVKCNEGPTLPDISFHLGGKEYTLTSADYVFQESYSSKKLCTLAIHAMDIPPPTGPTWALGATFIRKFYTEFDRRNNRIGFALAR
Method: Renin activity: Pooled confluent flasks of HMC-1 cells, or individual wells of HMC-1 cells, were pelleted and resuspended in HEPES buffer (pH 5.7, 1 mM EDTA) containing the mast-cell degranulating agent compound 48/80 (100 μg/ml or 20 μg/ml; Sigma). After 30 min, cells were spun down and the renin-containing supernatant was incubated with increasing concentrations of human angiotensinogen (Sigma). Renin activity (ANG I formed) was then determined using a GammaCoat Plasma Renin Activity 1251 Radioimmunoassay kit (DiaSorin, Mass.). The selective renin inhibitor BILA2157 was from Boehringer Ingelheim.
The cell releasate was incubated with increasing concentrations of angiotensinogen and then assayed for ANG I formed (i.e. renin activity) by RIA. A concentration-response curve for ANG I formation as a function of angiotensinogen concentration was generated on the HMC-1 releasate. The amount of ANG I formed increased with angiotensinogen concentration. […]
FIG. 4F illustrates that mast-cell-derived renin can be synthesized in mast cells. Releasates were analyzed from the same population of HMC-1 exposed to compound 48/80 (20 μg/ml) 48 hours apart, and analyzed for BILA2157-sensitive renin activity.

renin = target: T2, renin (Homo sapiens, UniProt P00797); details: specific renin inhibitor; cited from earlier work
T2 sequence (P00797 67-406): T1 sequence (P00797 67-406)

[2] = tested on: cardiac sympathetic nerve endings; experiment: norepinephrine release from isolated cardiac sympathetic nerve endings incubated with angiotensinogen; format: cell-based, guinea pig; details: nerve endings incubated with BILA2157 10 nM, enalaprilat 30 nM or EXP 3174 10 nM
Description: Preparation ofguinea-pig sympathetic nerve endings: Cardiac sympathetic nerve endings were isolated from guinea-pig hearts as previously described (Seyedi et al., J Pharmacol Exp Ther 290: 656-663, 1999; Seyedi et al., Circ. Res. 81: 774-784, 1997). Spontaneously beating hearts were isolated as previously described by the inventors (Hatta et al., J. Pharmacol. Exp. Ther. 288: 919-927, 1999; Park et al., Circ. Res. 71: 992-1001, 1992). Briefly, male Hartley guinea pigs were anesthetized with CO2 vapor and then exsanguinated. Hearts were perfused through the aorta for 15 min at constant pressure with Ringer's solution at 37° C. (Park et al., Circ. Res. 71: 992-1001, 1992) to exclude blood from the coronary circulation. Hearts were minced in 0.32 M sucrose containing 1 mM EGTA. The minced tissue was then digested with 75 mg collagenase per 10 ml HBS per gm for 1 hr at 37° C. After low speed centrifugation the resulting pellet were suspended in 10 volumes of 0.32 M sucrose and homogenized with a Teflon/glass homogenizer. The homogenate was centrifuged at 650g for 10 min, the pellet was re-homogenized and the homogenate was centrifuged again. The pellet containing cellular debris was discarded, the supernatants from the last two spins were combined, the pooled supernatant was equally subdivided into 4 to 8 tubes and re-centrifuged for 20 min at 20,000g at 4° C. This pellet contains cardiac sympathetic nerve endings. The pellet was resuspended either in HEPES-buffered saline (HBS; 500 μl, normoxic conditions) or in glucose-free HBS, which contained the reducing agent sodium dithionite (500 μl, ischemic conditions), and incubated in the absence or presence of angiotensinogen (1 hr) or other agents for 20 min at 37° C. prior to ischemia (see below). Each suspension was used only once as an independent sample.
Norepinephrine assay: Coronary effluent and synaptosome supernatant will be assayed for NE by HPLC with electrochemical detection (ESA). […]

## CC(C)C[C@H](O)[C@H](O)[C@H](CC1CCCCC1)NC(=O)[C@@H](CC(=O)N(CC(=O)N(C)CCc1ccccn1)CC1CCCCC1)Cc1csc(N)n1 [BILA2157]
[1]
  chronotropic response to 48/80: markedly abbreviated
[1]; listed as BILA 2157
  chronotropic response to 48/80: diminishes the chronotropic response
Cardiac mast cells
  renin overflow into coronary effluent after 48/80 challenge: abolished
Cardiac mast cells; listed as BILA 2157
  renin overflow into coronary effluent after 48/80 challenge: markedly diminished
guinea-pig hearts
  ventricular fibrillation during reperfusion: no ventricular fibrillation; also recorded: ventricular fibrillation did not occur
  renin overflow into coronary effluent on reperfusion: abrogated
guinea-pig hearts; listed as BILA 2157
  ventricular fibrillation during reperfusion: prevent ventricular fibrillation; also recorded: essentially no ventricular fibrillation
  renin overflow into coronary effluent on reperfusion: prevented renin release
mast-cell-derived renin; 240 nM angiotensinogen, initially and 48 hours after degranulation with 48/80
  share of ANG I activity due to BILA2157-sensitive renin: about 70%
mast-cell-derived renin; increasing angiotensinogen concentrations
  share of total ANG I formed that originates from renin (BILA2157-sensitive): ~70%
renin
  IC50: 1 nM
[2]
  effect on 48/80 potentiation of norepinephrine release: abolished
